Read-outs that look alike come from different tables or passages of the source.
Tests used:
NF-κB = NF-κB assay: THP1-NF-κB-LUC cells, LPS-stimulated secreted luciferase; assay type: cell-based; settings: THP1-NF-κB-LUC cells, read-out: IC50 (NF-κB assay)
Outline: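 THP1-NF-κB-LUC cells (25k/well) were pretreated with compounds for 2 h, then stimulated with LPS (10 ng/mL) for 18 h. Secreted luciferase was measured and normalized to vehicle, and IC50 was fitted from the concentration series.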

TNF release = assay: TNF assay: TNF release from LPS-stimulated human PBMCs (TNF ELISA); assay type: cell-based; settings: PBMC, read-out: IC50 (TNF assay)
Outline: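 Human PBMCs at 10k/well pretreated with compound dilutions 2 h, then stimulated with LPS (10 ng/mL) for 18 h. TNF in supernatants quantified by ELISA; IC50 for inhibition of TNF release fitted from concentration–response.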

[1] = LPS-stimulated human PBMCs, TNF ELISA
[2] = compounds 2 hours before LPS (10 ng/mL) for 18 hours, secreted luciferase
[3] = human PBMCs, compounds 2 hours before LPS (10 ng/ml) for 18 hours, supernatant TNF ELISA

SMILES | IC50 (NF-κB; LPS-stimulated) [µM] | IC50 (TNF release; [1]) [µM] | IC50 (NF-κB; [2]) [µM] | IC50 (TNF release; [3]) [µM]
CN(C)c1cccc(-c2nc3ccc(C(=O)O)cc3nc2-c2cccc(N(C)C)c2)c1 [BC19500] | > 10 | > 10 | – | –
CN(C)c1cccc(-c2nc3ccc(C(=O)NCCN4CCOCC4)cc3nc2-c2cccc(N(C)C)c2)c1 [BC19501] | > 10 | > 10 | – | –
CN(C)c1cccc(-c2nc3ccc(C(=O)NCCO)cc3nc2-c2cccc(N(C)C)c2)c1 [BC19502] | > 10 | > 10 | – | –
O=c1[nH]ccc2cc([S+]([O-])c3ccc(Cl)cc3)ccc12 (stereo not shown) [BC19515] | – | – | > 10 | > 10
O=c1[nH]ccc2cc(S(=O)(=O)c3ccc(Cl)cc3)ccc12 [BC19516] | – | – | > 10 | > 10
Cc1ccc([S+]([O-])c2ccc3c(=O)[nH]ccc3c2)cc1 (stereo not shown) [BC19517] | – | – | > 10 | > 10
Cc1ccc(S(=O)(=O)c2ccc3c(=O)[nH]ccc3c2)cc1 [BC19518] | – | – | > 10 | > 10
O=c1[nH]ccc2cc([S+]([O-])c3cccc(F)c3)ccc12 (stereo not shown) [BC19519] | – | – | > 10 | > 10
O=c1[nH]ccc2cc(S(=O)(=O)c3cccc(F)c3)ccc12 [BC19520] | – | – | > 10 | > 10
COCC[S+]([O-])c1[nH]c(-c2ccccc2)nc1S(=O)(=O)c1ccc(F)cc1 (stereo not shown) [BC19524] | > 10 | > 10 | – | –
CC(C)CS(=O)(=O)c1sc(-c2ccc(Cl)cc2)nc1S(=O)(=O)c1ccc(Cl)cc1 [BC19529] | > 10 | 1 to 10 | – | –
O=S(=O)(c1ccc(Cl)cc1)c1nc(-c2cccc(F)c2)sc1[S+]([O-])C1CCCCC1 (stereo not shown) [BC19532] | > 10 | > 10 | – | –
CC(C)[S+]([O-])c1sc(-c2ccc(Cl)cc2)nc1S(=O)(=O)c1ccc(F)cc1 (stereo not shown) [BC19537] | > 10 | > 10 | – | –
COCCS(=O)(=O)c1sc(-c2ccc(Cl)cc2)nc1S(=O)(=O)c1ccc(F)cc1 [BC19541] | 1 to 10 | 1 to 10 | – | –
O=S1(=O)CCn2c(-c3ccccc3)nc(S(=O)(=O)c3ccc(F)cc3)c21 [BC19542] | > 10 | > 10 | – | –
CCS(=O)(=O)c1cc2c(c(S(=O)(=O)Nc3ccc(C)c(Cl)c3)c1)OCC(=O)N2 [BC19544] | – | – | < 0.1 | > 10
CCS(=O)(=O)c1cc2c(c(S(=O)(=O)Nc3ccc(F)cc3F)c1)OCC(=O)N2 [BC19545] | – | – | < 0.1 | > 10
CCS(=O)(=O)c1cc2c(c(S(=O)(=O)Nc3ccc(C)cc3)c1)OCC(=O)N2 [BC19546] | – | – | < 0.1 | > 10
CCS(=O)(=O)c1cc2c(c(S(=O)(=O)Nc3ccc(OC)c(Cl)c3)c1)OCC(=O)N2 [BC19547] | – | – | 0.1 to 1 | > 10
CCS(=O)(=O)c1cc2c(c(S(=O)(=O)Nc3ccc(C#N)cc3)c1)OCC(=O)N2 [BC19548] | – | – | < 0.1 | > 10

Second part, the compound after the results:

IC50 (NF-κB; LPS-stimulated) [µM] | IC50 (TNF release; [1]) [µM] | IC50 (NF-κB; [2]) [µM] | IC50 (TNF release; [3]) [µM] | SMILES
1 to 10 | > 10 | – | – | C#CCNC(=O)c1ccc2nc(-c3cccc(N(C)C)c3)c(-c3cccc(N(C)C)c3)nc2c1 [BC19499]
1 to 10 | 1 to 10 | – | – | O=C(NCCN1CCOCC1)c1ccc2nc(-c3ccc(OC(F)(F)F)cc3)c(-c3ccc(OC(F)(F)F)cc3)nc2c1 [BC19503]
0.1 to 1 | > 10 | – | – | O=S(=O)(NCCN1CCOCC1)c1ccc2nc(-c3ccc(F)cc3)c(-c3ccc(F)cc3)nc2c1 [BC19504]
0.1 to 1 | > 10 | – | – | O=S(=O)(NC1CC1)c1ccc2nc(-c3ccc(F)cc3)c(-c3ccc(F)cc3)nc2c1 [BC19505]
0.1 to 1 | > 10 | – | – | O=S(=O)(NCC1CC1)c1ccc2nc(-c3ccc(F)cc3)c(-c3ccc(F)cc3)nc2c1 [BC19506]
< 0.1 | > 10 | – | – | COCCNS(=O)(=O)c1ccc2nc(-c3ccc(F)cc3)c(-c3ccc(F)cc3)nc2c1 [BC19507]
0.1 to 1 | 1 to 10 | – | – | O=S(=O)(CCCCN1CCOCC1)c1ccc2nc(-c3ccc(F)cc3)c(-c3ccc(F)cc3)nc2c1 [BC19508]
< 0.1 | > 10 | – | – | O=S(=O)(NCCCO)c1ccc2nc(-c3ccc(F)cc3)c(-c3ccc(F)cc3)nc2c1 [BC19509]
0.1 to 1 | > 10 | – | – | CN1CCN(c2ccc3nc(-c4ccc(F)cc4)c(-c4ccc(F)cc4)nc3c2)CC1 [BC19510]
< 0.1 | > 10 | – | – | CC(=O)N1CCN(c2ccc3nc(-c4ccc(F)cc4)c(-c4ccc(F)cc4)nc3c2)CC1 [BC19511]
0.1 to 1 | > 10 | – | – | N#Cc1ccc2nc(-c3ccc(F)cc3)c(-c3ccc(F)cc3)nc2n1 [BC19512]
< 0.1 | > 10 | – | – | O=C(c1ccc2nc(-c3ccc(F)cc3)c(-c3ccc(F)cc3)nc2c1)N1CCN(CCO)CC1 [BC19513]
0.1 to 1 | 1 to 10 | – | – | O=C(c1ccc2nc(-c3ccc(F)cc3)c(-c3ccc(F)cc3)nc2c1)N1CCN(CCOCCO)CC1 [BC19514]
< 0.1 | 0.1 to 1 | – | – | CCCS(=O)(=O)c1oc(-c2ccccc2)nc1S(=O)(=O)c1ccc(Cl)cc1 [BC19521]
1 to 10 | > 10 | – | – | CS(=O)(=O)c1[nH]c(-c2ccccc2)nc1S(=O)(=O)c1ccc(F)cc1 [BC19522]
1 to 10 | > 10 | – | – | CC(C)[S+]([O-])c1[nH]c(-c2ccccc2)nc1S(=O)(=O)c1ccc(F)cc1 (stereo not shown) [BC19523]
1 to 10 | 1 to 10 | – | – | O=S(=O)(CC1CC1)c1sc(-c2ccccc2)nc1S(=O)(=O)c1ccc(Cl)cc1 [BC19525]
1 to 10 | 1 to 10 | – | – | COCC[S+]([O-])c1sc(-c2ccccc2)nc1S(=O)(=O)c1ccc(Cl)cc1 (stereo not shown) [BC19526]
1 to 10 | 1 to 10 | – | – | COCCS(=O)(=O)c1sc(-c2cccc(F)c2)nc1S(=O)(=O)c1ccc(Cl)cc1 [BC19527]
1 to 10 | 0.1 to 1 | – | – | C[S+]([O-])c1sc(-c2ccc(Cl)cc2)nc1S(=O)(=O)c1ccc(Cl)cc1 (stereo not shown) [BC19528]
1 to 10 | 1 to 10 | – | – | O=S(=O)(CC1CC1)c1sc(-c2ccc(Cl)cc2)nc1S(=O)(=O)c1ccc(Cl)cc1 [BC19530]
1 to 10 | 0.1 to 1 | – | – | CCC[S+]([O-])c1sc(-c2cccc(F)c2)nc1S(=O)(=O)c1ccc(Cl)cc1 (stereo not shown) [BC19531]
1 to 10 | 1 to 10 | – | – | CCC[S+]([O-])c1sc(-c2ccc(Cl)cc2)nc1S(=O)(=O)c1ccc(Cl)cc1 (stereo not shown) [BC19533]
1 to 10 | 1 to 10 | – | – | CS(=O)(=O)c1sc(-c2ccc(Cl)cc2)nc1S(=O)(=O)c1ccc(F)cc1 [BC19534]
1 to 10 | 1 to 10 | – | – | CCC[S+]([O-])c1sc(-c2ccc(Cl)cc2)nc1S(=O)(=O)c1ccc(F)cc1 (stereo not shown) [BC19535]
1 to 10 | 0.1 to 1 | – | – | CCCS(=O)(=O)c1sc(-c2ccc(Cl)cc2)nc1S(=O)(=O)c1ccc(F)cc1 [BC19536]
1 to 10 | 1 to 10 | – | – | CC(C)S(=O)(=O)c1sc(-c2ccc(Cl)cc2)nc1S(=O)(=O)c1ccc(F)cc1 [BC19538]
1 to 10 | 1 to 10 | – | – | O=S(=O)(CC1CC1)c1sc(-c2ccc(Cl)cc2)nc1S(=O)(=O)c1ccc(F)cc1 [BC19539]
1 to 10 | 1 to 10 | – | – | COCC[S+]([O-])c1sc(-c2ccc(Cl)cc2)nc1S(=O)(=O)c1ccc(F)cc1 (stereo not shown) [BC19540]
0.1 to 1 | < 0.1 | – | – | Cc1ccc(S(=O)(=O)c2nc(S(=O)(=O)C(C)C)sc2S(=O)(=O)C(C)C)cc1 [BC19543]
